Test results: ChEMBL document CHEMBL5537165, “Hepatitis C: The Story of a Long Journey through First, Second, and Third Generation NS3/4A Peptidomimetic Inhibitors. What Did We Learn?” (J Med Chem, 2024)
Where a SMILES comes first, the peptide text is derived from it. [ ]: non-standard residue; d: D form. The star is where a group is joined. Hyp = O=C(O)[C@@H]1C[C@@H](O)CN1; Abu = CC[C@H](N)C(=O)O; Bn = c1ccc(C*)cc1

Key:
[1] = target: Replicase polyprotein 1ab (Severe acute respiratory syndrome coronavirus 2, UniProt P0DTD1); assay: Inhibition of SARS-CoV-2 3CL protease by FRET assay
[2] = tested on: SARS-CoV-2; assay: Antiviral activity against SARS-CoV-2 infected in African green monkey Vero E6 cells assessed as reduction in viral replication measured after 48 hrs by Hoechst 33342 staining based analysis; type: functional, organism-based; conditions: Severe acute respiratory syndrome coronavirus 2, Vero C1008, 48 h
[3] = target: T1, Non-structural protein 4b (Hepacivirus hominis, UniProt F5B4I0); assay: Inhibition of full length Hepatitis C virus genotype 1b NS4B expressed in Escherichia coli
T1 sequence (F5B4I0 whole entry): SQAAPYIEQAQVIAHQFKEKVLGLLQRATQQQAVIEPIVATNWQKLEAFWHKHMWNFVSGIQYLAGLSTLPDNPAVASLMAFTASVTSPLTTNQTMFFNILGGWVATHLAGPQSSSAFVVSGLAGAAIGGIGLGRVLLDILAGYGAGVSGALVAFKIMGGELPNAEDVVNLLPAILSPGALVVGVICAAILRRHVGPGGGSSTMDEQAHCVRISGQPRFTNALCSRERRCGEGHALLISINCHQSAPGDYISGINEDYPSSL

[4] = target: T1, Non-structural protein 4b; assay: Binding affinity to full length Hepatitis C virus genotype 1b NS4B expressed in Escherichia coli assessed as inhibition constant
[5] = target: T1, Non-structural protein 4b; assay: Inhibition of Hepatitis C virus genotype 1b NS4B
[6] = target: T1, Non-structural protein 4b; assay: Inhibition of Hepatitis C virus genotype 3a NS4B
[7] = Inhibition of Hepatitis C virus NS3 protease; design: species or system Hepacivirus hominis
[8] = target: T1, Non-structural protein 4b; assay: Binding affinity to Hepatitis C virus genotype 1b NS4B assessed as inhibition constant
[9] = Oral bioavailability in Sprague-Dawley rat; type: ADME, organism-based; conditions: in vivo
[10] = Oral bioavailability in Beagle dog at 2 mg/kg; type: ADME, organism-based, Canis lupus familiaris; conditions: in vivo
[11] = Clearance in Sprague-Dawley rat at 2 mg/kg, iv by LC-MS/MS analysis; type: ADME, organism-based; conditions: in vivo
[12] = target: T1, Non-structural protein 4b; assay: Binding affinity to Hepatitis C virus genotype 1a NS4B assessed as inhibition constant
[13] = target: T1, Non-structural protein 4b; assay: Binding affinity to Hepatitis C virus genotype 3a NS4B assessed as inhibition constant
[14] = target: T1, Non-structural protein 4b; assay: Inhibition of Hepatitis C virus genotype 1a NS4B
[15] = Cmax in Sprague-Dawley rat at 3 mg/kg, po and measured upto 24 hrs by LC-MS/MS analysis; type: ADME, organism-based; conditions: in vivo
[16] = Half life in Sprague-Dawley rat at 5 mg/kg, po by LC-MS/MS analysis; type: ADME, organism-based; conditions: in vivo
[17] = AUC (0 to infinity) in liver to plasma of Sprague-Dawley rat at 3 mg/kg,po; type: ADME, organism-based; conditions: in vivo
[18] = Half life in Beagle dog at 5 mg/kg, po by LC-MS/MS analysis; type: ADME, organism-based, Canis lupus familiaris; conditions: in vivo
[19] = AUC in Sprague-Dawley rat plasma […] at 10 mg/kg, po administered via gavage by LC-MS/MS analysis; type: ADME, organism-based; conditions: in vivo
[20] = Cmax in Beagle dog at 3 mg/kg, po and measured upto 24 hrs by LC-MS/MS analysis; type: ADME, organism-based, Canis lupus familiaris; conditions: in vivo
[21] = Clearance in Beagle dog plasma at 0.5 mg/kg, iv and measured upto 24 hrs by LC-MS/MS analysis; type: ADME, organism-based, Canis lupus familiaris
[22] = Volume of distribution at steady state in Sprague-Dawley rat at 1 mg/kg, iv; type: ADME, organism-based; conditions: in vivo, read-out: Vdss
[23] = Volume of distribution at steady state in Beagle dog at 0.5 mg/kg, iv and measured upto 24 hrs by LC-MS/MS analysis; type: ADME, organism-based, Canis lupus familiaris; conditions: in vivo, read-out: Vdss
[24] = tested on: SARS-CoV-2; assay: Antiviral activity against SARS-CoV-2 infected in human Huh-7 cells assessed as reduction in viral growth; type: functional, organism-based; conditions: Severe acute respiratory syndrome coronavirus 2, Huh-7
[25] = target: T1, Non-structural protein 4b; assay: Binding affinity to Hepatitis C virus genotype 1 NS4B assessed as inhibition constant

In the case of `C=C[C@@H]1C[C@]1(NC(=O)[C@@H]1C[C@@H](Oc2cc(-c3csc(NC(C)C)n3)nc3c(C(C)C)c(OC)ccc23)CN1C(=O)[C@@H](NC(=O)OC1CCCC1)C(C)(C)C)C(=O)O`, the IC50 [1] is reported as 14 nM and the EC50 [2] is reported as 45 nM.
In the case of `C=C[C@H]1C[C@]1(NC(=O)[C@@H]1C[C@@H]2CN1C(=O)[C@H](C(C)(C)C)NC(=O)OCCC/C=C/c1cccc3c1CN(C3)C(=O)O2)C(=O)NS(=O)(=O)C1CC1`, the IC50 [3] is reported as 7 nM and the Ki [4] is reported as 0.05 nM.
For `C=C[C@@H]1C[C@]1(NC(=O)[C@@H]1C[C@@H](Oc2cc(-c3csc(NC(C)C)n3)nc3cc(OC)ccc23)CN1C(=O)[C@@H](NC(=O)OC1CCCC1)C(C)(C)C)P(=O)(O)O`, the IC50 [1] was 0.9 nM.
In the case of `Cc1nc2ccccc2c2c1O[C@]1(CC2)C[C@H]2C(=O)N[C@]3(C(=O)NS(=O)(=O)C4(C)CC4)C[C@H]3/C=C/CCCCC[C@H](NC(=O)OC(C)(C)C)C(=O)N2C1`, the IC50 [5] is reported as 0.013 nM and the IC50 [6] is reported as 0.7 nM.
For `COc1ccc2nc3c4c(c2c1)CC[C@]1(C[C@H]2C(=O)N[C@]5(C(=O)NS(=O)(=O)C6(C)CC6)C[C@H]5/C=C/CCCCC[C@H](NC(=O)O[C@@H]5CCC[C@H]5CCCCC3)C(=O)N2C1)O4`, the IC50 [1] was less than 0.01 nM.
For `C=C[C@@H]1C[C@]1(NC(=O)[C@@H]1C[C@@H](Oc2cc(-c3ccccc3)nc3cc(OC)ccc23)CN1C(=O)[C@H](CCCCC)NC(=O)OC(C)(C)C)C(=O)O`, the IC50 [7] was 400 nM.
With `CC[C@@H]1C[C@]1(NC(=O)[C@@H]1C[C@@H]2CN1C(=O)[C@H](C(C)(C)C)NC(=O)OCC(C)(C)CCCCc1cccc3c1CN(C3)C(=O)O2)C(=O)NS(=O)(=O)C1CC1` the IC50 [5] was 3 nM and the Ki [8] was 0.05 nM.
With `C=C[C@@H]1C[C@]1(NC(=O)[C@@H]1C[C@@H]2CN1C(=O)[C@H](C1CCCC1)NC(=O)O[C@@H]1CCC[C@H]1CCCCCn1c(nc3cc(OC)ccc3c1=O)O2)C(=O)NS(=O)(=O)C1(C)CC1` [MK-2748] the bioavailability [9] was 40%, the bioavailability [10] was 27% and the clearance [11] was 88 mL/min/kg. The Ki [12] was 0.009 nM, the Ki [13] was 1.2 nM and the IC50 [14] was 0.009 nM. It also gave a Cmax [15] of 490 nM, a half-life [16] of 1.9 h and an AUC [17] of 2420 µM·h. The half-life [18] was 2.5 h, the AUC [19] was 28.9 µM·h and the Cmax [20] was 4400 nM. For the same molecule, the clearance [21] was 1 mL/min/kg, the Vd [22] was 5 L/kg and the Vd [23] was 0.12 L/kg.
`C=C[C@@H]1C[C@]1(NC(=O)[C@@H]1C[C@@H](Oc2nccc3ccccc23)CN1C(=O)[C@@H](NC(=O)OC(C)(C)C)C(C)(C)C)C(=O)NS(=O)(=O)C1CC1` showed an IC50 [14] of 7 nM and an EC50 [24] of 60 nM.
Work on `COc1ccc2c(O[C@@H]3C[C@H]4C(=O)N[C@]5(C(=O)O)C[C@H]5/C=C/CCCCC[C@H](NC(=O)OC(C)(C)C)C(=O)N4C3)cc(-c3ccccc3)nc2c1` yielded an IC50 [7] of 11 nM.
In the case of `C=C[C@@H]1C[C@]1(NC(=O)[C@@H]1C[C@]2(CCc3c(c(C)nc4ccccc34)O2)CN1C(=O)[C@@H](NC(=O)OC(C)(C)C)C(C)(C)C)C(=O)NS(=O)(=O)C1(C)CC1`, the IC50 [5] is reported as 0.033 nM and the IC50 [6] is reported as 5.7 nM.
For `C=C[C@@H]1C[C@]1(NC(=O)[C@@H]1C[C@@H](Oc2cc(-c3csc(C(=O)CC)n3)nc3c(C)c(OC)ccc23)CN1C(=O)[C@@H](NC(=O)OC1CCCC1)C(C)(C)C)C(=O)O`, the IC50 [1] was 10 nM and the EC50 [2] was 12 nM.
Work on `C=C[C@@H]1C[C@]1(NC(=O)[C@@H]1C[C@]23CCc4c(c(nc5ccc(OC)cc45)CCCCC[C@@H]4C[C@H]4OC(=O)N[C@@H](C4(C)CCCCC4)C(=O)N1C2)O3)C(=O)NS(=O)(=O)C1(C)CC1` yielded an IC50 [6] of 4.5 nM.
`C=C[C@@H]1C[C@]1(NC(=O)[C@@H]1C[C@@H](Oc2cc(-c3ccccc3)nc3cc(OC)ccc23)CN1C(=O)[C@@H](NC(=O)OC(C)(C)C)C(C)(C)C)C(=O)NS(=O)(=O)C1CC1` gave an IC50 [14] of 1 nM and an EC50 [24] of 4 nM.
`COc1ccc2nc(C(F)(F)F)c3c(c2c1)CC[C@]1(C[C@H]2C(=O)N[C@]4(C(=O)NS(=O)(=O)C5(C)CC5)C[C@H]4/C=C/CCCCCC(NC(=O)OC(C)(C)C)C(=O)N2C1)O3` (stereo partly drawn) gave an IC50 [6] of 0.47 nM.
Molecule `CC[C@@H](C=O)NC(=O)[C@@H]1C[C@@H](OCc2ccccc2)CN1C(=O)[C@@H](NC(=O)[C@@H](NC(=O)[C@H](CC(=O)O)NC(=O)[C@H](CCC(=O)O)NC(C)=O)C(C)C)C(C)C` (Ac-EDVV[Hyp](Bn)[Abu]-aldehyde) has a Ki [25] of 890 nM.
